Reference: patent publication US12377080B2, “Allosteric EGFR inhibitors and methods of use thereof” (Dana-Farber Cancer Institute, Inc., priority 2019, dated 2025)

Columns and labels:
[1] = system: EGFR L858R/T790M mutant Ba/F3 Cells; test: Ba/F3 cell proliferation (Cell Titer Glo) in combination with cetuximab; type: cell-based, murine; settings: 72 hours
From the text: The EGFR mutant L858R, Del E746_A750, L858R/T790M, Del E746_A750/T790M, L858R/T790MIC797S, and DellT790MIC797S Ba/F3 cells have been previously described (Zhou, W., et al, Nature 462, 2009, 1070-1074). All cell lines were maintained in RPM I 1640 (Cellgro; Mediatech Inc., Herndon, CA) supplemented with 10% FBS, 100 units/mL penicillin, 100 units/mL streptomycin. The EGFR 1941 R mutation was introduced via site directed mutagenesis using the Quick Change Site-Directed Mutagenesis kit (Stratagene; La Jolla, CA) according to the manufacturer's instructions. All constructs were confirmed by DNA sequencing. The constructs were shuttled into the retroviral vector JP1540 using the Cre-recombination system (Agilent Technologies, Santa Clara, CA). Ba/F3 cells were then infected with retrovirus per standard protocols, as described previously (Zhou, et al, Nature 2009). Stable clones were obtained by selection in puromycin (2 μg/ml),
Growth and inhibition of growth was assessed by the Cell Titer Glo assay (Promega, Madison, WI) and was performed according to the manufacturer's instructions. The Cell Titer Glo assay is a luminescence-based method used to determine the number of viable cells based on quantitation of the ATP present, which is directly proportional to the amount of metabolically active cells present. Ba/F3 cells of different EGFR genotypes were exposed to compounds as a single agent or in combination with […] for 72 hours and the number of cells used per experiment was determined empirically as has been previously established (Zhou, et al., Nature 2009). All experimental points were set up in triplicates in 384-well plates and all experiments were repeated at least three times. […] The curves were fitted using a non-linear regression model with a sigmoidal dose response.

EGFR L858R/T790M = EGFR L858R/T790M (Homo sapiens (Human), UniProt P00533, L858R/T790M); test: HTRF-based EGFR biochemical assay (L858R/T790M); settings: 100 μM ATP
Chain of EGFR L858R/T790M (P00533 25-1210 T790M/L858R): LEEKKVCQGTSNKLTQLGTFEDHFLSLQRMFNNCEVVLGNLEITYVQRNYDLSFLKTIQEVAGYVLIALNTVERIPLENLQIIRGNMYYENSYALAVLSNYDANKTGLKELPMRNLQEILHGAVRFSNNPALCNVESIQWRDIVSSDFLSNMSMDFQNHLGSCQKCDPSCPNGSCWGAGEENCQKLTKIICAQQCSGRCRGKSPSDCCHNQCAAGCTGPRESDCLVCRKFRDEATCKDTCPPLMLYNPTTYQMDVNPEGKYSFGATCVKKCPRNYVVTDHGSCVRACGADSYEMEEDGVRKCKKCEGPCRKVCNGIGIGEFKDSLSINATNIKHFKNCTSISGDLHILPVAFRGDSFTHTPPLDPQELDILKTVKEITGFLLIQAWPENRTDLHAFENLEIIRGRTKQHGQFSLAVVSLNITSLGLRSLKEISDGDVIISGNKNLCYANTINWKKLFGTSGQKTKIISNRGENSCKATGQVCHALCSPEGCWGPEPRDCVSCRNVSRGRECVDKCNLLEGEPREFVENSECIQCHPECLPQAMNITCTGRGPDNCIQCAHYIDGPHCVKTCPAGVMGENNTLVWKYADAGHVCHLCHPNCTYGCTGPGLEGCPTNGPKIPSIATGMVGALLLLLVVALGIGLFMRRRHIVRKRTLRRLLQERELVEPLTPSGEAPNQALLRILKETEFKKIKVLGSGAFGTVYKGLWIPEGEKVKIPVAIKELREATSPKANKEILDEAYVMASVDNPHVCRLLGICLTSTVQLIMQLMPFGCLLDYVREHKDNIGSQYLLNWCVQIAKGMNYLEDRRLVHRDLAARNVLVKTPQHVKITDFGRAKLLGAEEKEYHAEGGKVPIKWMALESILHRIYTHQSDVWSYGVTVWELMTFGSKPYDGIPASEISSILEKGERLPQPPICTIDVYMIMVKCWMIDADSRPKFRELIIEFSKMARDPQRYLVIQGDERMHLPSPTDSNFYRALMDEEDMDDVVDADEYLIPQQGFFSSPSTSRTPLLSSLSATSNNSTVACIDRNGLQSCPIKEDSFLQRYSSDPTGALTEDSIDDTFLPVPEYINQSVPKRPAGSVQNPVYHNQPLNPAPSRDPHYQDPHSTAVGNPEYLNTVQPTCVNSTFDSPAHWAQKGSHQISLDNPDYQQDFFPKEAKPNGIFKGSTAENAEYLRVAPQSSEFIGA
Experimental: (§1) EGFR biochemical activity measurements were carried out using the homogeneous time-resolved fluorescence (HTRF) assay (Cisbio). Inhibitors and DMSO normalizations were first dispensed to empty black low-volume 384-well plates (Corning) with D300 digital liquid dispenser (HP). All reactions were carried out at room temperature and solutions were added to plates with a Multidrop Combi Reagent Dispenser (ThermoFisher). The reaction mixture (10 μL final volume) contained 1 μM tyrosine kinase peptide-biotin substrate and mutant EGFR in a reaction buffer (50 mM HEPES pH 7,0, 5 mM MgCl2,1 mM MnCl2, 0.01% BSA, 2 mM TCEP, 0.1 mM NaVO4). Enzyme concentrations were adjusted to accommodate varying kinase activities (L858R 0.1 nM, L858R!T790M 0,02 nM). Enzyme reaction solution (2× concentrations, 5 μL) was added to 384-well plates containing compounds and incubated for 30 mins. Enzyme reactions were initiated with the addition of […] of ATP to a final concentration of 100 μM and reacted for 20 mins. Reactions were quenched with the addition of 10 μL of phospho-tyrosine antibody-Europium(III) cryptate (1-to-180 volume ratio) and Streptavidin-XL665 (46.7 nM) in EDTA-containing detection buffer, then incubated at room temperature for 1 hour, and read with a PHERAstar plate reader (excitation =337 nm, emission =620 nm and 665 nm).

EGFR L858R = EGFR L858R (Homo sapiens (Human), UniProt P00533, L858R); test: HTRF-based EGFR biochemical assay (L858R); settings: 100 μM ATP
Chain of EGFR L858R (P00533 25-1210 L858R): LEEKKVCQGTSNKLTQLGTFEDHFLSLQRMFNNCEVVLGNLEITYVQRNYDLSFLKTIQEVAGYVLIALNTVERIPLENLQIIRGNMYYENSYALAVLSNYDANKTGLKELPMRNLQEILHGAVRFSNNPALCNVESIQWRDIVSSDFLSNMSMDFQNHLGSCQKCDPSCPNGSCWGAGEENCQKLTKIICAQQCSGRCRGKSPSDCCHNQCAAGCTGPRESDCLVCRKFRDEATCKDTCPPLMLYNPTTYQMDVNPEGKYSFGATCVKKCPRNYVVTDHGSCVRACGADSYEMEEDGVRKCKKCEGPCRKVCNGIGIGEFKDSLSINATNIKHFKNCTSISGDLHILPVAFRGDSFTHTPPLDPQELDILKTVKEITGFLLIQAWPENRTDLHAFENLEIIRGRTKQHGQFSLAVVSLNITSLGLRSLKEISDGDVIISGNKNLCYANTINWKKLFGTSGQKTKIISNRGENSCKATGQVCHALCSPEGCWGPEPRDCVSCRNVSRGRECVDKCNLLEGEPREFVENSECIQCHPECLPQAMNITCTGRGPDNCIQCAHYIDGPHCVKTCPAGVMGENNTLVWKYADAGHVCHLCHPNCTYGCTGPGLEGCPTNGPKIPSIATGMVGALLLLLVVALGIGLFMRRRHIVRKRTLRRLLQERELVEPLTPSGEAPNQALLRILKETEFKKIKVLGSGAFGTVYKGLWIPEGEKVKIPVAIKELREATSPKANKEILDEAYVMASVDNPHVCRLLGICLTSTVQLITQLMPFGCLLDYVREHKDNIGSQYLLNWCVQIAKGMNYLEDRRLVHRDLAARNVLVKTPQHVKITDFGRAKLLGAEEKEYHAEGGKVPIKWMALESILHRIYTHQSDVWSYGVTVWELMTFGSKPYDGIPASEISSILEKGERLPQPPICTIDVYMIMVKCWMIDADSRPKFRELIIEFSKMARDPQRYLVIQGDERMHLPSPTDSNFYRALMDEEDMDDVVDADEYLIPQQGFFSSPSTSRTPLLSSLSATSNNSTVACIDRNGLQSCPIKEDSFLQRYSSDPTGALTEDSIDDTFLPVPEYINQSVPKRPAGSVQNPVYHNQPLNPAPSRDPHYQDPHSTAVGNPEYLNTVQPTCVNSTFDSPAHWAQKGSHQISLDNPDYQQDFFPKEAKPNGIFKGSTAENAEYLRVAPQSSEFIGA
Experimental: as §1

CN1CCC(c2ccc(-c3cnc4c(c3)C(=O)N(C(C(=O)Nc3nccs3)c3cccc(F)c3)C4)cc2)C1 (centres unmarked) [Compound 11, 2-(3-fluorophenyl)-2-(3-(4-(1-methylpyrrolidin-3-yl)phenyl)-5-oxo-5,7-dihydro-6H-pyrrolo-[3,4-b]pyridin-6-yl)-N-(thiazol-2-yl)acetamide]
IC50 [1]: 0.05 µM
IC50 (EGFR L858R/T790M): 0.003 µM
IC50 (EGFR L858R): 0.027 µM

CN1CCC(c2ccc(-c3ccc4c(n3)C(=O)N(C(C(=O)Nc3nccs3)c3cccc(F)c3)C4)cn2)CC1 (centres unmarked) [Compound 17, 2-(3-fluorophenyl)-2-(2-(6-(1-methylpiperidin-4-yl)pyridin-3-yl)-7-oxo-5,7-dihydro-6H-pyrrolo[3,4-b]pyridin-6-yl)-N-(thiazol-2-yl)acetamide]
IC50 [1]: 0.14 µM
IC50 (EGFR L858R/T790M): 0.007 µM
IC50 (EGFR L858R): 0.036 µM

CN1CCC(c2ccc(-c3ccc4c(n3)C(=O)N(C(C(=O)Nc3nccs3)c3cccc(F)c3)C4)cc2)CC1 (centres unmarked) [Compound 13, 2-(3-fluorophenyl)-2-(2-(4-(1-methylpiperidin-4-yl)phenyl)-7-oxo-5,7-dihydro-6H-pyrrolo-[3,4-b]pyridin-6-yl)-N-(thiazol-2-yl)acetamide]
IC50 [1]: 0.02 µM
IC50 (EGFR L858R/T790M): 0.001 µM
IC50 (EGFR L858R): 0.007 µM

O=C(Nc1nccs1)C(c1cccc(F)c1)N1Cc2ccc(Br)nc2C1=O (centres unmarked) [Compound 4, 2-(2-bromo-7-oxo-5,7-dihydro-6H-pyrrolo[3,4-b]pyridin-6-yl)-2-(3-fluorophenyl)-N-(thiazol-2-yl)acetamide]
IC50 [1]: 1.76 µM

CN1CCN(c2ccc(-c3cnc4c(c3)C(=O)N(C(C(=O)Nc3ccccn3)c3cccc(F)c3)C4)cn2)CC1 (centres unmarked) [Compound 12, 2-(3-fluorophenyl)-2-(3-(6-(4-methylpiperazin-1-yl)pyridin-3-yl)-5-oxo-5,7-dihydro-6H-pyrrolo[3,4-b]pyridin-6-yl)-N-(pyridin-2-yl)acetamide]
IC50 [1]: 1.91 µM
IC50 (EGFR L858R/T790M): 0.041 µM
IC50 (EGFR L858R; cells printed in μM): > 1 µM

CN1CCC(c2ccc(-c3ccc4c(n3)C(=O)N(C(C(=O)Nc3nccs3)c3cccc(F)c3)C4)cc2F)CC1 (centres unmarked) [Compound 20, 2-(2-(3-fluoro-4-(1-methyl-piperidin-4-yl)phenyl)-7-oxo-5,7-dihydro-6H-pyrrolo[3,4-b]pyridin-6-yl)-2-(3-fluoro-phenyl)-N-(thiazol-2-yl)-acetamide]
IC50 [1]: 0.02 µM
IC50 (EGFR L858R/T790M): 0.001 µM
IC50 (EGFR L858R): 0.005 µM

CN1CCC(c2ccc(-c3ccc4c(n3)C(=O)N(C(C(=O)Nc3nccs3)c3cccc(F)c3)C4)c(F)c2)CC1 (centres unmarked) [Compound 19, 2-(2-(2-fluoro-4-(1-methyl-piperidin-4-yl)phenyl)-7-oxo-5,7-dihydro-6H-pyrrolo[3,4-b]pyridin-6-yl)-2-(3-fluoro-phenyl)-N-(thiazol-2-yl)-acetamide]
IC50 [1]: 0.03 µM
IC50 (EGFR L858R/T790M): 0.0007 µM
IC50 (EGFR L858R): 0.004 µM

CN1CCC(c2ccc(-c3ccc4c(n3)C(=O)N(C(C(=O)Nc3ccccn3)c3cc(F)ccc3O)C4)cc2)CC1 (centres unmarked) [Compound 21, 2-(5-fluoro-2-hydroxyphenyl)-2-(2-(4-(1-methylpiperidin-4-yl)phenyl)-7-oxo-5,7-dihydro-6H-pyrrolo[3,4-b]pyridin-6-yl)-N-(pyridin-2-yl)acetamide]
IC50 [1]: 0.01 µM
IC50 (EGFR L858R/T790M): 0.0004 µM
IC50 (EGFR L858R): 0.004 µM

CN1CCN(c2ccc(-c3ccc4c(n3)C(=O)N(C(C(=O)Nc3nccs3)c3cccc(F)c3)C4)cn2)CC1 (centres unmarked) [Compound 15, 2-(3-fluorophenyl)-2-(2-(6-(4-methylpiperazin-1-yl)pyridin-3-yl)-7-oxo-5,7-dihydro-6H-pyrrolo[3,4-b]pyridin-6-yl)-N-(thiazol-2-yl)acetamide]
IC50 [1]: 0.33 µM
IC50 (EGFR L858R/T790M): 0.006 µM
IC50 (EGFR L858R): 0.083 µM

O=C(Nc1nccs1)C(c1cccc(F)c1)N1Cc2ncc(Br)cc2C1=O (centres unmarked) [Compound 2, 2-(3-bromo-5-oxo-5,7-dihydro-6H-pyrrolo[3,4-b]pyridin-6-yl)-2-(3-fluorophenyl)-N-(thiazol-2-yl)acetamide]
IC50 [1]: 0.38 µM

O=C(Nc1ccccn1)C(c1cccc(F)c1)N1Cc2ccc(Br)nc2C1=O (centres unmarked) [Compound 5, 2-(2-bromo-7-oxo-5,7-dihydro-6H-pyrrolo[3,4-b]pyridin-6-yl)-2-(3-fluorophenyl)-N-(pyridin-2-yl)acetamide]
IC50 [1]: > 10 µM

CN1CCC(c2ccc(-c3cnc4c(c3)C(=O)N(C(C(=O)Nc3nccs3)c3cccc(F)c3)C4)cn2)CC1 (centres unmarked) [Compound 18, 2-(3-fluorophenyl)-2-(3-(6-(1-methylpiperidin-4-yl)pyridin-3-yl)-5-oxo-5,7-dihydro-6H-pyrrolo[3,4-b]pyridin-6-yl)-N-(thiazol-2-yl)acetamide]
IC50 [1]: 0.22 µM
IC50 (EGFR L858R/T790M): 0.009 µM
IC50 (EGFR L858R): 0.126 µM

CN1CCN(c2ccc(-c3ccc4c(n3)C(=O)N(C(C(=O)Nc3nccs3)c3cccc(F)c3)C4)cc2)CC1 (centres unmarked) [Compound 14, 2-(3-fluorophenyl)-2-(2-(4-(4-methylpiperazin-1-yl)phenyl)-7-oxo-5,7-dihydro-6H-pyrrolo-[3,4-b]pyridin-6-yl)-N-(thiazol-2-yl)acetamide]
IC50 [1]: 0.12 µM
IC50 (EGFR L858R/T790M): 0.004 µM
IC50 (EGFR L858R): 0.032 µM

CN1CCN(c2ccc(-c3cnc4c(c3)C(=O)N(C(C(=O)Nc3nccs3)c3cccc(F)c3)C4)cn2)CC1 (centres unmarked) [Compound 8, 2-(3-fluorophenyl)-2-(3-(6-(4-methylpiperazin-1-yl)pyridin-3-yl)-5-oxo-5,7-dihydro-6H-pyrrolo[3,4-b]pyridin-6-yl)-N-(thiazol-2-yl)acetamide]
IC50 [1]: 0.2 µM
IC50 (EGFR L858R/T790M): 0.001 µM
IC50 (EGFR L858R): 0.02 µM

O=C(Nc1nccs1)C(c1cccc(F)c1)N1Cc2cnc(Br)cc2C1=O (centres unmarked) [Compound 1, 2-(6-bromo-1-oxo-1,3-dihydro-2H-pyrrolo[3,4-c]pyridin-2-yl)-2-(3-fluorophenyl)-N-(thiazol-2-yl)acetamide]
IC50 [1]: 5.48 µM

CN1CCC(c2ccc(-c3cnc4c(c3)C(=O)N(C(C(=O)Nc3ccccn3)c3cc(F)ccc3O)C4)cc2)CC1 (centres unmarked) [Compound 22, 2-(5-fluoro-2-hydroxyphenyl)-2-(3-(4-(1-methylpiperidin-4-yl)phenyl)-5-oxo-5,7-dihydro-6H-pyrrolo[3,4-b]pyridin-6-yl)-N-(pyridin-2-yl)acetamide]
IC50 [1]: 0.03 µM
IC50 (EGFR L858R/T790M): 0.001 µM
IC50 (EGFR L858R): 0.005 µM

O=C(Nc1ccccn1)C(c1cccc(F)c1)N1Cc2ncc(Br)cc2C1=O (centres unmarked) [Compound 3, 2-(3-bromo-5-oxo-5,7-dihydro-6H-pyrrolo[3,4-b]pyridin-6-yl)-2-(3-fluorophenyl)-N-(pyridin-2-yl)acetamide]
IC50 [1]: 2.37 µM

CN1CCC(c2ccc(-c3cnc4c(c3)C(=O)N(C(C(=O)Nc3nccs3)c3cccc(F)c3)C4)cc2)CC1 (centres unmarked) [Compound 9, 2-(3-fluorophenyl)-2-(3-(4-(1-methylpiperidin-4-yl)phenyl)-5-oxo-5,7-dihydro-6H-pyrrolo-[3,4-b]pyridin-6-yl)-N-(thiazol-2-yl)acetamide]
IC50 [1]: 0.01 µM
IC50 (EGFR L858R/T790M): 0.001 µM
IC50 (EGFR L858R): 0.005 µM

CN1CCC(c2ccc(-c3cc4c(cn3)CN(C(C(=O)Nc3nccs3)c3cccc(F)c3)C4=O)cc2)CC1 (centres unmarked) [Compound 6, 2-(3-fluorophenyl)-2-(6-(4-(1-methylpiperidin-4-yl)phenyl)-1-oxo-1,3-dihydro-2H-pyrrolo-[3,4-c]pyridin-2-yl)-N-(thiazol-2-yl)acetamide]
IC50 [1]: 0.13 µM
IC50 (EGFR L858R/T790M): 0.006 µM
IC50 (EGFR L858R): 0.06 µM

CN1CCC(c2ccc(-c3ccc4c(n3)C(=O)N(C(C(=O)Nc3nccs3)c3cccc(F)c3)C4)cc2)C1 (centres unmarked) [Compound 16, 2-(3-fluorophenyl)-2-(2-(4-(1-methylpyrrolidin-3-yl)phenyl)-7-oxo-5,7-dihydro-6H-pyrrolo-[3,4-b]pyridin-6-yl)-N-(thiazol-2-yl)acetamide]
IC50 [1]: 0.04 µM
IC50 (EGFR L858R/T790M): 0.001 µM
IC50 (EGFR L858R): 0.006 µM
